Measured values: patent US20060167057A1, “Compounds for the treatment of CNS and amyloid associated diseases” (priority 2004, published 2006)

Molecular target: T1, L1 transport system (large neutral amino acid carrier, L1-system carrier) (Rattus norvegicus, UniProt Q63016)
T1 construct: functionality of their endogenous transporters such as the L1-system carrier; endogenous in cells; host or cells: rat primary cerebrovascular (brain microcapillary) endothelial cells, RBEC
Assay: Competitive binding assay to the brain L1 transport system (L-[U-14C]phenylalanine on rat primary cerebrovascular endothelial cells)
Description: Compound samples in PBS (without Ca^+2, Mg^+2)-glucose 30 mM-HEPES 10 mM—DMSO 1% as prepared in Example 1 were thawed and left for at least 30 minutes at 20-23° C. before preparation of the following sub-dilutions for the competitive binding assay: • 200 μL of the stock solution were added to 800 μL PBS (without Ca^+2, Mg^+2)-Glucose-HEPES-1% DMSO (PBSD-1) [diluted 1:5 for a final 1:5 dilution] • 100 μL (1/5 dilution above) were added to 900 μL PBSD-1 [diluted 1:10 for a final 1:50 dilution] • 100 μL (1/50 dilution above) were added to 900 μL PBSD-1 [diluted 1:10 for a final 1:500 dilution]
These sub-dilutions were used immediately or stored overnight at 4° C. before the competitive binding assay. A volume of 45 μL of each of the compound dilutions (1:5, 1:50, 1:500) in PBSD-1 was added to the appropriate wells in the dilution plate.
Brains from sixty 24-day-old rats were dissected individually on a sterile lint moistened with ice cold Hanks' balanced salt solution (Gibco BRL, Grand Island, N.Y.) containing 10 mM HEPES (medium 1) supplemented with 0.1% BSA. Cerebellum, striatum, optic nerves, and brain stem (white matter) were removed. After a mid-sagittal section of the brain, the meninges and leptomeningeal debris were removed by rolling a sterile dry cotton swab on the cortices. (Ichikawa N, Naora K, Hirano H, Hashimoto M, Masumura S, and Iwamoto K (1996). Isolation and primary culture of rat cerebral microvascular endothelial cells for studying drug transport in vitro. J Pharmacol Toxicol Meth 36: 45-52.). Clean cortices were minced in pieces of ≈2 mm^3 in 15 mL of ice-cold medium 1-0.1% BSA. The preparation was divided into 4 sterile pre-weighed tubes and centrifuged at 330× g at 20-25° C. for 5 min. Tubes were weighed and pre-warmed (37° C.) and medium 1 with 0.5% BSA containing 0.3% collagenase and 10 μg/mL DNAse 1 (Roche, Laval, Quebec, Canada) were added to each tube (1 mL/g of tissue).
The brain-collagenase mixture was vigorously agitated in a water bath at 37° C. for 90 min. Fifteen min before the end of the digestion, the tissue was homogenized using a 10-mL pipette until a creamy mixture was obtained (≈20 aspirations). Cells were washed by adding medium 1 with 0.1% BSA to the homogenate (26 mL/tube) and centrifuged at 100× g at 20-25° C. for 7 min. This washing step was repeated 3 more times, once for 5 min and twice for 3 min. Each pellet was re-suspended in 25 mL of a 15% dextran solution prepared in medium 1 with 0.1% BSA and centrifuged at 3200× g at 4° C. for 25 min to isolate vessels from neural tissue and dextran layers. Vascular pellets were re-suspended in 5 mL Ca^++—Mg^++-free-medium 1 with 0.1% BSA (medium 2) at 20-25° C. and transferred in a 50-mL tube. Remaining vessels were collected by rinsing the tubes and pooling the rinsing suspension. (Rupnick M A, Carey A, and Williams S K (1988). Phenotypic diversity in cultured cerebral microvascular endothelial cells in vitro. Cell Develop Biol 24: 435-444.)
The vascular preparation was filtered and rinsed (20 mL of medium 2) through a sterile 355-μm mesh. The 355-μm filtrate was sequentially filtered twice (20 mL of medium 2) through sterile 112-μm meshes and rinsed (Stanimirovic D B, Wong J, Ball R, and Durkin J P (1995). Free radical-induced endothelial membrane dysfunction at the site of the blood-brain barrier: relationship between lipid peroxidation, Na,K-ATPase activity, and ^51Cr release. Neurochem Res 20:1417-1427.) and the latter filtrate was filtered and rinsed through a sterile 20-μm mesh. A final step of filtration and rinse was repeated through a double layer of 20-μm meshes. All 20-μm meshes, which retained the microcapillaries, were then transferred into a 50-mL tube containing 20 mL of a 0.1% collagenase/dispase (Roche) solution in medium 2 supplemented with 10 μg/mL DNAse 1 and 0.147 μg/mL tosyl-lysine-chloromethyl-ketone (Sigma Chemical Co., Oakville, Ontario, Canada) (medium 3).

T1 sequence (Q63016 whole entry): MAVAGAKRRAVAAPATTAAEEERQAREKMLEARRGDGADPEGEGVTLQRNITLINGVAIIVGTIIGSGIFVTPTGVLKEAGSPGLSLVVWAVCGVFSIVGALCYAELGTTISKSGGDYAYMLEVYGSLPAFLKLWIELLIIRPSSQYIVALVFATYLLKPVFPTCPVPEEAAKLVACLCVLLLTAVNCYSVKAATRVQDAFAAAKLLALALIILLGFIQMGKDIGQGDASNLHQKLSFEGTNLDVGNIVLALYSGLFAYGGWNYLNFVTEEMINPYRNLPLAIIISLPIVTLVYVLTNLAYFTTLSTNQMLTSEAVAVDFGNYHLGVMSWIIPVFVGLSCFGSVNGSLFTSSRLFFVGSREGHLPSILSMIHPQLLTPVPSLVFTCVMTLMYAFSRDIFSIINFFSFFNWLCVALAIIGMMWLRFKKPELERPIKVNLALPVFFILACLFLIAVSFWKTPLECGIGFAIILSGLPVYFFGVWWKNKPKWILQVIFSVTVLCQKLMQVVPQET
T1 sequence (Q794F9 whole entry partner): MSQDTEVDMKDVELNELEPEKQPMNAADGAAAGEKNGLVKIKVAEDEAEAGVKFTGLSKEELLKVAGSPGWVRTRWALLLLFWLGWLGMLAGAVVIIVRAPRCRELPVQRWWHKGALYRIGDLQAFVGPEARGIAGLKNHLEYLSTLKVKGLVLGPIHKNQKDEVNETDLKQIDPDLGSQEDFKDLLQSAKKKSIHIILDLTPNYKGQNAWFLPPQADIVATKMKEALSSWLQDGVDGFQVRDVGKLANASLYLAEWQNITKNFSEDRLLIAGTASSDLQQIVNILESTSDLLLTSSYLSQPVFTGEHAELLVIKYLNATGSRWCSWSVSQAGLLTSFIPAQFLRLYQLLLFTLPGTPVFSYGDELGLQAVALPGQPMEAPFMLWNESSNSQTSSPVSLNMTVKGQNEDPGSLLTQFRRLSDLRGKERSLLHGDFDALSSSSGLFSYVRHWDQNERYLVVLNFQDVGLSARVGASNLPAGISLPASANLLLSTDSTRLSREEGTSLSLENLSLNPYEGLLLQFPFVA

NC(=O)C(N)Cc1cccc(CSc2nccc(N)n2)n1 (stereo not drawn) [Compound 39]
Comparison with the Binding of Phenylalanine (10^−4 M): 0 (X < 0 Rank 0) | Comparison with the Binding of Phenylalanine (10^−5 M): 2 (10 < X < 20 Rank 2) | Comparison with the Binding of Phenylalanine (10^−6 M): 3 (X > 20 Rank 3)

NC(Cc1cccc(-c2cccc(N3CC=CCC3)c2)c1)C(=O)O (stereo not drawn) [Compound 43]
Comparison with the Binding of Phenylalanine (10^−4 M): 0 (X < 0 Rank 0) | Comparison with the Binding of Phenylalanine (10^−5 M): 2 (10 < X < 20 Rank 2) | Comparison with the Binding of Phenylalanine (10^−6 M): 0 (X < 0 Rank 0)

NC(Cc1ccc(-c2ccc(CN3CC=CCC3)cc2)cc1)C(=O)O (stereo not drawn) [Compound 44]
Comparison with the Binding of Phenylalanine (10^−4 M): 0 (X < 0 Rank 0) | Comparison with the Binding of Phenylalanine (10^−5 M): 1 (0 < X < 10 Rank 1) | Comparison with the Binding of Phenylalanine (10^−6 M): 0 (X < 0 Rank 0)

NC(Cc1cccc(CSc2ccnc3cc(C(F)(F)F)ccc23)n1)C(=O)O (stereo not drawn) [Compound 45]
Comparison with the Binding of Phenylalanine (10^−4 M): 0 (X < 0 Rank 0) | Comparison with the Binding of Phenylalanine (10^−5 M): 2 (10 < X < 20 Rank 2) | Comparison with the Binding of Phenylalanine (10^−6 M): 0 (X < 0 Rank 0)

NC(Cc1ccc(-c2ccc(CSc3ccnc4cc(C(F)(F)F)ccc34)cc2)cc1)C(=O)O (stereo not drawn) [Compound 47]
Comparison with the Binding of Phenylalanine (10^−4 M): 0 (X < 0 Rank 0) | Comparison with the Binding of Phenylalanine (10^−5 M): 2 (10 < X < 20 Rank 2) | Comparison with the Binding of Phenylalanine (10^−6 M): 2 (10 < X < 20 Rank 2)

N[C@@H](Cc1ccccc1)C(=O)NC(Cc1cccc(CSc2nnc(-c3ccccc3)o2)c1)C(=O)O (stereo partly drawn) [Compound 48]
Comparison with the Binding of Phenylalanine (10^−4 M): 0 (X < 0 Rank 0) | Comparison with the Binding of Phenylalanine (10^−5 M): 1 (0 < X < 10 Rank 1) | Comparison with the Binding of Phenylalanine (10^−6 M): 1 (0 < X < 10 Rank 1)

O=C(Nc1ccc(-c2ccccc2)cc1)NC(Cc1cccc(CSc2nnc(-c3ccccc3)o2)c1)C(=O)O (stereo not drawn) [Compound 49]
Comparison with the Binding of Phenylalanine (10^−4 M): 2 (10 < X < 20 Rank 2) | Comparison with the Binding of Phenylalanine (10^−5 M): 3 (X > 20 Rank 3) | Comparison with the Binding of Phenylalanine (10^−6 M): 3 (X > 20 Rank 3)

N[C@@H](Cc1ccccc1)C(=O)NC(Cc1cccc(CSc2nnnn2-c2ccc(O)cc2)c1)C(=O)O (stereo partly drawn) [Compound 50]
Comparison with the Binding of Phenylalanine (10^−4 M): 0 (X < 0 Rank 0) | Comparison with the Binding of Phenylalanine (10^−5 M): 2 (10 < X < 20 Rank 2) | Comparison with the Binding of Phenylalanine (10^−6 M): 2 (10 < X < 20 Rank 2)

O=C(Nc1ccc(-c2ccccc2)cc1)NC(Cc1cccc(CSc2nnnn2-c2ccc(O)cc2)c1)C(=O)O (stereo not drawn) [Compound 51]
Comparison with the Binding of Phenylalanine (10^−4 M): 0 (X < 0 Rank 0) | Comparison with the Binding of Phenylalanine (10^−5 M): 3 (X > 20 Rank 3) | Comparison with the Binding of Phenylalanine (10^−6 M): 2 (10 < X < 20 Rank 2)

O=C(Nc1ccc(-c2ccccc2)cc1)NC(Cc1cccc(CSc2ncc[nH]2)c1)C(=O)O (stereo not drawn) [Compound 52]
Comparison with the Binding of Phenylalanine (10^−4 M): 0 (X < 0 Rank 0) | Comparison with the Binding of Phenylalanine (10^−5 M): 0 (X < 0 Rank 0) | Comparison with the Binding of Phenylalanine (10^−6 M): 1 (0 < X < 10 Rank 1)

N[C@@H](Cc1ccccc1)C(=O)NC(Cc1cccc(CSc2nnnn2-c2ccccc2)c1)C(=O)O (stereo partly drawn) [Compound 53]
Comparison with the Binding of Phenylalanine (10^−4 M): 0 (X < 0 Rank 0) | Comparison with the Binding of Phenylalanine (10^−5 M): 2 (10 < X < 20 Rank 2) | Comparison with the Binding of Phenylalanine (10^−6 M): 2 (10 < X < 20 Rank 2)

O=C(Nc1ccc(-c2ccccc2)cc1)NC(Cc1cccc(CSc2nnnn2-c2ccccc2)c1)C(=O)O (stereo not drawn) [Compound 54]
Comparison with the Binding of Phenylalanine (10^−4 M): 1 (0 < X < 10 Rank 1) | Comparison with the Binding of Phenylalanine (10^−5 M): 3 (X > 20 Rank 3) | Comparison with the Binding of Phenylalanine (10^−6 M): 2 (10 < X < 20 Rank 2)

NC(=O)C(Cc1cccc(CSc2nnc(-c3ccncc3)o2)c1)NC(=O)NC(c1ccccc1)c1ccccc1 (stereo not drawn) [Compound 55]
Comparison with the Binding of Phenylalanine (10^−4 M): 1 (0 < X < 10 Rank 1) | Comparison with the Binding of Phenylalanine (10^−5 M): 3 (X > 20 Rank 3) | Comparison with the Binding of Phenylalanine (10^−6 M): 2 (10 < X < 20 Rank 2)

O=C(NC(Cc1cccc(CSc2nnc(-c3ccccc3)[nH]2)c1)C(=O)O)NC(c1ccccc1)c1ccccc1 (stereo not drawn) [Compound 57]
Comparison with the Binding of Phenylalanine (10^−4 M): 3 (X > 20 Rank 3) | Comparison with the Binding of Phenylalanine (10^−5 M): 3 (X > 20 Rank 3) | Comparison with the Binding of Phenylalanine (10^−6 M): 3 (X > 20 Rank 3)

O=C(Nc1ccc(-c2ccccc2)cc1)NC(Cc1cccc(CSc2cncc3c(C(F)(F)F)cccc23)n1)C(=O)O (stereo not drawn) [Compound 61]
Comparison with the Binding of Phenylalanine (10^−4 M): 2 (10 < X < 20 Rank 2) | Comparison with the Binding of Phenylalanine (10^−5 M): 0 (X < 0 Rank 0) | Comparison with the Binding of Phenylalanine (10^−6 M): 2 (10 < X < 20 Rank 2)

O=C(Nc1ccc(-c2ccccc2)cc1)NC(Cc1cccc(CSc2nc3ccccc3[nH]2)n1)C(=O)O (stereo not drawn) [Compound 62]
Comparison with the Binding of Phenylalanine (10^−4 M): 0 (X < 0 Rank 0) | Comparison with the Binding of Phenylalanine (10^−5 M): 0 (X < 0 Rank 0) | Comparison with the Binding of Phenylalanine (10^−6 M): 3 (X > 20 Rank 3)

O=C(Nc1ccc(-c2ccccc2)cc1)NC(Cc1cccc(CSc2nc3ccccc3o2)n1)C(=O)O (stereo not drawn) [Compound 63]
Comparison with the Binding of Phenylalanine (10^−4 M): 0 (X < 0 Rank 0) | Comparison with the Binding of Phenylalanine (10^−5 M): 0 (X < 0 Rank 0) | Comparison with the Binding of Phenylalanine (10^−6 M): 1 (0 < X < 10 Rank 1)

O=C(O)C(Cc1cccc(CSc2ncnc3[nH]ncc23)n1)NS(=O)(=O)c1ccc(F)cc1 (stereo not drawn) [Compound 64]
Comparison with the Binding of Phenylalanine (10^−4 M): 0 (X < 0 Rank 0) | Comparison with the Binding of Phenylalanine (10^−5 M): 1 (0 < X < 10 Rank 1) | Comparison with the Binding of Phenylalanine (10^−6 M): 0 (X < 0 Rank 0)

NC(Cc1cccc(CSc2ccnc3cc(C(F)(F)F)ccc23)c1)C(=O)O (stereo not drawn) [Compound 70]
Comparison with the Binding of Phenylalanine (10^−4 M): 0 (X < 0 Rank 0) | Comparison with the Binding of Phenylalanine (10^−5 M): 1 (0 < X < 10 Rank 1) | Comparison with the Binding of Phenylalanine (10^−6 M): 0 (X < 0 Rank 0)

NC(Cc1cccc(CN2CCN(c3cccc(Cl)c3)CC2)c1)C(=O)O (stereo not drawn) [Compound 71]
Comparison with the Binding of Phenylalanine (10^−4 M): 0 (X < 0 Rank 0) | Comparison with the Binding of Phenylalanine (10^−5 M): 0 (X < 0 Rank 0) | Comparison with the Binding of Phenylalanine (10^−6 M): 1 (0 < X < 10 Rank 1)

CCOC(=O)c1c[nH]c(Sc2cccc(-c3cccc(CC(N)C(=O)O)c3)c2)nc1=O (stereo not drawn) [Compound 72]
Comparison with the Binding of Phenylalanine (10^−4 M): 1 (0 < X < 10 Rank 1) | Comparison with the Binding of Phenylalanine (10^−5 M): 2 (10 < X < 20 Rank 2) | Comparison with the Binding of Phenylalanine (10^−6 M): 1 (0 < X < 10 Rank 1)

CN(C)CCn1nnnc1SCc1cccc(CC(N)C(=O)O)c1 (stereo not drawn) [Compound 73]
Comparison with the Binding of Phenylalanine (10^−4 M): 1 (0 < X < 10 Rank 1) | Comparison with the Binding of Phenylalanine (10^−5 M): 3 (X > 20 Rank 3) | Comparison with the Binding of Phenylalanine (10^−6 M): 1 (0 < X < 10 Rank 1)

NC(Cc1cccc(-c2cccc(Sc3nc(-c4ccccc4)c(-c4ccccc4)[nH]3)c2)c1)C(=O)O (stereo not drawn) [Compound 74]
Comparison with the Binding of Phenylalanine (10^−4 M): 0 (X < 0 Rank 0) | Comparison with the Binding of Phenylalanine (10^−5 M): 1 (0 < X < 10 Rank 1) | Comparison with the Binding of Phenylalanine (10^−6 M): 1 (0 < X < 10 Rank 1)

NC(Cc1cccc(CN2CCN(c3ccc(F)cc3)CC2)c1)C(=O)O (stereo not drawn) [Compound 75]
Comparison with the Binding of Phenylalanine (10^−4 M): 0 (X < 0 Rank 0) | Comparison with the Binding of Phenylalanine (10^−5 M): 0 (X < 0 Rank 0) | Comparison with the Binding of Phenylalanine (10^−6 M): 1 (0 < X < 10 Rank 1)

COc1ccc2[nH]c(Sc3cccc(-c4cccc(CC(N)C(=O)O)c4)c3)nc2c1 (stereo not drawn) [Compound 76]
Comparison with the Binding of Phenylalanine (10^−4 M): 0 (X < 0 Rank 0) | Comparison with the Binding of Phenylalanine (10^−5 M): 0 (X < 0 Rank 0) | Comparison with the Binding of Phenylalanine (10^−6 M): 1 (0 < X < 10 Rank 1)

NC(Cc1cccc(CSc2nc3cc([N+](=O)[O-])ccc3[nH]2)c1)C(=O)O (stereo not drawn) [Compound 79]
Comparison with the Binding of Phenylalanine (10^−4 M): 2 (10 < X < 20 Rank 2) | Comparison with the Binding of Phenylalanine (10^−5 M): 3 (X > 20 Rank 3) | Comparison with the Binding of Phenylalanine (10^−6 M): 0 (X < 0 Rank 0)
